Where two headings read alike, the source gives them in different places.
Assays:
[1] = target: T1, AT1 (h) (antagonist radioligand) (Homo sapiens, UniProt P30556); experiment: CEREP Diversity Panel; format: binding
T1 construct: purchased CEREP (Eurofins Cerep)
Experimental: (§1) […]. MAO-A inhibition at 10 μM was 37%, in line with internal data.

[2] = target: T2, D2S (h) (antagonist radioligand) (Homo sapiens, UniProt P14416); experiment: CEREP Diversity Panel; format: binding
T2 construct: purchased CEREP (Eurofins Cerep)
Experimental: as §1

[3] = target: T3, BLT1 (LTB4) (h) (agonist radioligand) (Homo sapiens, UniProt Q15722); experiment: CEREP Diversity Panel; format: binding
T3 construct: purchased CEREP (Eurofins Cerep)
T3 sequence (Q15722 whole entry): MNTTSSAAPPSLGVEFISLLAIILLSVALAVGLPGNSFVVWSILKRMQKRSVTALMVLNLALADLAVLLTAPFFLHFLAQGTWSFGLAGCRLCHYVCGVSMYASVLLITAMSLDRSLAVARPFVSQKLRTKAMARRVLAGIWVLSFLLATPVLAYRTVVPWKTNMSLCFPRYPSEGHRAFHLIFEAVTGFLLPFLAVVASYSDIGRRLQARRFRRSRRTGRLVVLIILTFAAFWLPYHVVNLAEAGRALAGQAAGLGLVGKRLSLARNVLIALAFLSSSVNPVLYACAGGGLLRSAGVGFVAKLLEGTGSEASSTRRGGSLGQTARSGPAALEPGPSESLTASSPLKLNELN
Experimental: as §1

[4] = target: T4, V1a (h) (agonist radioligand) (Homo sapiens, UniProt P37288); experiment: CEREP Diversity Panel; format: binding
T4 construct: purchased CEREP (Eurofins Cerep)
T4 sequence (P37288 whole entry): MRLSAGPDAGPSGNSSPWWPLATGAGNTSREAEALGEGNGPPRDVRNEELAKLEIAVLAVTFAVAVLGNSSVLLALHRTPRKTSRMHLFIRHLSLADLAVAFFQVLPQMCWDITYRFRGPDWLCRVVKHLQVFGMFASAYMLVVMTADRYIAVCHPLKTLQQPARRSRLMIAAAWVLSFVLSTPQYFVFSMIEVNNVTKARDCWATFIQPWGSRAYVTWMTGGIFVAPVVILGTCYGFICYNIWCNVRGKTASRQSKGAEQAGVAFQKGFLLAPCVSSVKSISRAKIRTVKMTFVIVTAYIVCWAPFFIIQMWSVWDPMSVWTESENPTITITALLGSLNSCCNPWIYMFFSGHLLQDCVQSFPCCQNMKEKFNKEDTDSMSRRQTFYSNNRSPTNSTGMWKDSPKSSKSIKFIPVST
Experimental: as §1

[5] = target: T5, D1 (h) (antagonist radioligand) (Homo sapiens, UniProt P21728); experiment: CEREP Diversity Panel; format: binding
T5 construct: purchased CEREP (Eurofins Cerep)
T5 sequence (P21728 whole entry): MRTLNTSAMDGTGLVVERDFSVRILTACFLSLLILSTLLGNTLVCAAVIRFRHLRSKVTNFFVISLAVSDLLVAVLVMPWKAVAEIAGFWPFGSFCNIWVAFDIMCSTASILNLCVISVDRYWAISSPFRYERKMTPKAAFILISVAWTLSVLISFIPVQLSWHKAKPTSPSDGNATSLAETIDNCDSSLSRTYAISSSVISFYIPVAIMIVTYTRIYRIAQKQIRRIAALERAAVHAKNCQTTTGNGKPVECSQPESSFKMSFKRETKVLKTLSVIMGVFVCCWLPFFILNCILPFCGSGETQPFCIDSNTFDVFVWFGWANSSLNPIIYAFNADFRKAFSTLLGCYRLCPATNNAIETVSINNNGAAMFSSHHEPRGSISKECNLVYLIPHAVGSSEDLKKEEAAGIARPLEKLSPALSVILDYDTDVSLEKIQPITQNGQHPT
Experimental: as §1

[6] = target: T6, CCK2 (CCKB) (h) (agonist radioligand) (Homo sapiens, UniProt P32239); experiment: CEREP Diversity Panel; format: binding
T6 construct: purchased CEREP (Eurofins Cerep)
T6 sequence (P32239 whole entry): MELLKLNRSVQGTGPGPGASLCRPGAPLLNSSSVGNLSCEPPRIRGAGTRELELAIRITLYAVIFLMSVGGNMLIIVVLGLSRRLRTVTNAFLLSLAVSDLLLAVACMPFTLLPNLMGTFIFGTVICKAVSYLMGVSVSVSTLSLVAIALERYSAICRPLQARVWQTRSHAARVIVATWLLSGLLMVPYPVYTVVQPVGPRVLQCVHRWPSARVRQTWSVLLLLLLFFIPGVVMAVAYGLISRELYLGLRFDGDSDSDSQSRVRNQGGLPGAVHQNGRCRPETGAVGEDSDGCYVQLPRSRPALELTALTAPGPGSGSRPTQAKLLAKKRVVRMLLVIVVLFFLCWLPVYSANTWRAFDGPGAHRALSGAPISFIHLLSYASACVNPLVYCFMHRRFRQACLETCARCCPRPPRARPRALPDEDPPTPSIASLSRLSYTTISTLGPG
Experimental: as §1

[7] = target: T7, CB2 (h) (agonist radioligand) (Homo sapiens, UniProt P34972); experiment: CEREP Diversity Panel; format: binding
T7 construct: purchased CEREP (Eurofins Cerep)
T7 sequence (P34972 whole entry): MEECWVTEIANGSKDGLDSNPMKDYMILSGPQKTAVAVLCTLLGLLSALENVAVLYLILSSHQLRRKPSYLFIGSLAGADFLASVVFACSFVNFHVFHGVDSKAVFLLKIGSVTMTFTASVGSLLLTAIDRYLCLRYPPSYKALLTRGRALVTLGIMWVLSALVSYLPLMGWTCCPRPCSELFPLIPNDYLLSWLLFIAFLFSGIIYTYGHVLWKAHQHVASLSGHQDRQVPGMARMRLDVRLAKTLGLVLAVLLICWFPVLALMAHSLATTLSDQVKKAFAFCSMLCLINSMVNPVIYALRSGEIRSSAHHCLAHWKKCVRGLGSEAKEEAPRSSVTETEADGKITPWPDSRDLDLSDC
Experimental: as §1

[8] = target: T8, B2 (h) (agonist radioligand) (Homo sapiens, UniProt P30411); experiment: CEREP Diversity Panel; format: binding
T8 construct: purchased CEREP (Eurofins Cerep)
T8 sequence (P30411 whole entry): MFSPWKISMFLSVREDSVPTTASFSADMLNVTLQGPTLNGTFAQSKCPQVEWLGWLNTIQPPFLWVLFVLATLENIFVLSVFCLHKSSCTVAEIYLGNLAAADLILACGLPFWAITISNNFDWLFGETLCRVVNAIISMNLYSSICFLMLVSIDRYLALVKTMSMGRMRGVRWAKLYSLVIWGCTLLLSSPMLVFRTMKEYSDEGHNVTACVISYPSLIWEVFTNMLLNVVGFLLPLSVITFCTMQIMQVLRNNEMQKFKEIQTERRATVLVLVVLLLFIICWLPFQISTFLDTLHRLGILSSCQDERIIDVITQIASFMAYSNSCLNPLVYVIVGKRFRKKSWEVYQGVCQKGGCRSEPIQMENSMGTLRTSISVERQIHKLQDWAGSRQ
Experimental: as §1

[9] = target: T9, MC4 (h) (agonist radioligand) (Homo sapiens, UniProt P32245); experiment: CEREP Diversity Panel; format: binding
T9 construct: purchased CEREP (Eurofins Cerep)
Experimental: as §1

[10] = target: T10, PAR1 (h) (agonist radioligand) (Homo sapiens, UniProt P25116); experiment: CEREP Diversity Panel; format: binding
T10 construct: purchased CEREP (Eurofins Cerep)
Experimental: as §1

[11] = target: T11, EP2 (h) (agonist radioligand) (Homo sapiens, UniProt P43116); experiment: CEREP Diversity Panel; format: binding
T11 construct: purchased CEREP (Eurofins Cerep)
T11 sequence (P43116 whole entry): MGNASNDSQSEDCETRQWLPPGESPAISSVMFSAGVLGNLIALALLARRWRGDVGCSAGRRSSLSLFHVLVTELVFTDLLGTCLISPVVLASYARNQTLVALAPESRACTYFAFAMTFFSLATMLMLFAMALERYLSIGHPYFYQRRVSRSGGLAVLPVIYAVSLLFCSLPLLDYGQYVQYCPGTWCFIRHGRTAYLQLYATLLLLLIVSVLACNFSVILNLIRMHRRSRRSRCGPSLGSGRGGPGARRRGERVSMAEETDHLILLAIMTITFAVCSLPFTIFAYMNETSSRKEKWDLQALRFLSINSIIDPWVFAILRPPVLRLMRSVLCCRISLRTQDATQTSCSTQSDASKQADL
Experimental: as §1

[12] = target: T12, N neuronal a 4b 2 (h) (agonist radioligand) (Homo sapiens, UniProt P17787+P43681); experiment: CEREP Diversity Panel; format: binding
T12 construct: purchased CEREP (Eurofins Cerep)
T12 sequence (P43681 29-627 limits assumed): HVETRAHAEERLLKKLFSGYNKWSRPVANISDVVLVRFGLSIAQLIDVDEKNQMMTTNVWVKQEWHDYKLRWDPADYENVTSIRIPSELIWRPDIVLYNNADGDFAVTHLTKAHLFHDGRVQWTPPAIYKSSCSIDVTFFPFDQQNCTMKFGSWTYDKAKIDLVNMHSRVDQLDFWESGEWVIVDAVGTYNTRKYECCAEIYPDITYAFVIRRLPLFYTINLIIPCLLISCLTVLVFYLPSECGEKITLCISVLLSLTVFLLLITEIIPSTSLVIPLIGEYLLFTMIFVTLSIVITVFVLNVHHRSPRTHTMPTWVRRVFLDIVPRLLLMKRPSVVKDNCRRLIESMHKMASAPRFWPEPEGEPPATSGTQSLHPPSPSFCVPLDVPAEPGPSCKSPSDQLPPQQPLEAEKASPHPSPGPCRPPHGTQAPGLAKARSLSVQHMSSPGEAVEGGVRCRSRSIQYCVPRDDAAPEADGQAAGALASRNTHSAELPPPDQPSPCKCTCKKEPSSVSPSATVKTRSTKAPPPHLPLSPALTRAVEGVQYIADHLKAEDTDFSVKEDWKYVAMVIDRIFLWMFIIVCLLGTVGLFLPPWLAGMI
T12 sequence (P17787 26-502): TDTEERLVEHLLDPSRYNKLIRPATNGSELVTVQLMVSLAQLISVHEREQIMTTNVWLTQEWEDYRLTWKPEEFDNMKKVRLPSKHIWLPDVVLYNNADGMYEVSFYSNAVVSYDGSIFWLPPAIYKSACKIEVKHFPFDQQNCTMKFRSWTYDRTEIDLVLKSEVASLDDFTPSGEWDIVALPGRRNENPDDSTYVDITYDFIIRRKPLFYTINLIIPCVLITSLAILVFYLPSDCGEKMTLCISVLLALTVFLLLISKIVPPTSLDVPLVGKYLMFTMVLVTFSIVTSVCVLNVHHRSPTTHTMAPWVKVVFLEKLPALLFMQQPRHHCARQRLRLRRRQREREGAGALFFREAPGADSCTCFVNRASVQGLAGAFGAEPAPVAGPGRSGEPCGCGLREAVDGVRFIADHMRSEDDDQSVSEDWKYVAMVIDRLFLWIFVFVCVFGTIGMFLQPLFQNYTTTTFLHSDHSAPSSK
Experimental: as §1

[13] = target: T13, beta 2 (h) (agonist radioligand) (Homo sapiens, UniProt P07550); experiment: CEREP Diversity Panel; format: binding
T13 construct: purchased CEREP (Eurofins Cerep)
Experimental: as §1

[14] = target: T14, beta 1 (h) (agonist radioligand) (Homo sapiens, UniProt P08588); experiment: CEREP Diversity Panel; format: binding
T14 construct: purchased CEREP (Eurofins Cerep)
Experimental: as §1

[15] = target: T15, IP (PGI2) (h) (agonist radioligand) (Homo sapiens, UniProt P43119); experiment: CEREP Diversity Panel; format: binding
T15 construct: purchased CEREP (Eurofins Cerep)
T15 sequence (P43119 whole entry): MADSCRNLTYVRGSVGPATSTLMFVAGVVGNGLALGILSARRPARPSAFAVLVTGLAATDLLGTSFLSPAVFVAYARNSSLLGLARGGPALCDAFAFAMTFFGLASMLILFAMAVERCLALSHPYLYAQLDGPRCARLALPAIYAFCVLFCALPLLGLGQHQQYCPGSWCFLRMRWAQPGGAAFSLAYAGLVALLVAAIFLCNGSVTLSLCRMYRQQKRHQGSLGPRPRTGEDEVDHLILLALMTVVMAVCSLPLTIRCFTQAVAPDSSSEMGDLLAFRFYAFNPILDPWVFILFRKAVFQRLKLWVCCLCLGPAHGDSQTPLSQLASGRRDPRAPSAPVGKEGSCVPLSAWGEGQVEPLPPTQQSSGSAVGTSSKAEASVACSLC
Experimental: as §1

[16] = target: T16, A1 (h) (antagonist radioligand) (Homo sapiens, UniProt P30542); experiment: CEREP Diversity Panel; format: binding
T16 construct: purchased CEREP (Eurofins Cerep)
T16 sequence (P30542 whole entry): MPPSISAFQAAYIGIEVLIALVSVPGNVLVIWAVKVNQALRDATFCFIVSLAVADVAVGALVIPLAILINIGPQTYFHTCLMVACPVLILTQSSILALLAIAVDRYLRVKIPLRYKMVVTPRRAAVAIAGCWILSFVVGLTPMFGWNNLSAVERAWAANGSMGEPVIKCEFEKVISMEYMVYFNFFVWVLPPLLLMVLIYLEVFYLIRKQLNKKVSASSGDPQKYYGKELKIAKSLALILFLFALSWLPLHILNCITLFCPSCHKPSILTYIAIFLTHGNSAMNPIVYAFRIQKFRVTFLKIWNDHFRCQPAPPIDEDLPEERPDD
Experimental: as §1

[17] = test system: AR (h) (agonist radioligand); experiment: CEREP Diversity Panel; format: binding, human; design: dose or concentration left out as unconfirmed
Experimental: as §1

[18] = test system: ER (non-selective) (h) (agonist radioligand); experiment: CEREP Diversity Panel; format: binding, human; design: dose or concentration left out as unconfirmed
Experimental: as §1

[19] = test system: guanylyl cyclase (h) (activator effect); experiment: CEREP Diversity Panel; format: biochemical, human; design: dose or concentration left out as unconfirmed
Experimental: as §1

[20] = test system: FAD cofactor (in KDM1A or free); experiment: KDM1A binding analysis (FAD absorbance at 450 nm)
Experimental: Analysis of binding of inhibitors to KDM1A was as previously described [22](Yang et al., 2007) with minor modifications. The binding to FAD (present in the enzyme or free) was analyzed by measuring the decrease in absorbance at 450nm in a Tecan Infinite F200 microplate reader. Briefly, KDM1A enzyme was mixed with the inhibitor (without substrate) and the absorbance at 450nm was compared with the absorbance of the KDM1A enzyme without inhibitor. The reaction is monitored during 30 min and values used to calculate Kobs.
Absorbance at 450 nm was measured as described and Kobs was calculated following the equation: […]

Rat pharmacokinetics = format: in vivo, Wistar rats; details: for AUC(0-inf) / Cmax / Tmax / AUC(0-t): Wistar; for AUC(0-inf): read-out: Plasma AUCinf; for AUC(0-t): read-out: Plasma AUClast
Experimental: Blood samples were collected at 0, 0.08 (for IV only), 0.25, 0.5, 1, 2, 4, and 6 (Only for PO) 8 and 24 hr for IV and PO group and at three rats were euthanized by using excess CO2 asphyxiation, each at 0.25, 1 and 4 hr post dose and brain was collected. The study was conducted at Sai Advantium Pharma Limited, Pune, India, in accordance with the guidelines of the Institutional Animal Ethics Committee (IAEC). Prior approval was obtained before initiation of the study (IAEC Protocol No. IAEC/PRT/006-11).
Blood samples were collected from each rat at 0.5, 1, 2, 4, 6, 8, 12, and 24 hr (oral gavage) or at 2, 4, 6, 8, 12, 24, 25, 27, 30 and 48 hr (drinking water) were collected from the retro-orbital plexus into labeled tubes, containing K2EDTA solution, as an anticoagulant. Animals were euthanized by using excess CO2 asphyxiation. […] Prior approval was obtained before initiation of the study (IAEC Protocol No. FB-14-069-R-089; IAEC-CPCSEA).
Plasma was harvested from the blood samples harvested in K2EDTA containing tubes by centrifugation at 4000 rpm for 10 min at 4 ± 2 °C and stored below -70 °C until bioanalysis. Brain tissue was homogenized with phosphate buffer saline (pH 7.4). Total homogenate volume was thrice the tissue weight. All samples were processed for analysis by precipitation using Imipramine as internal standard and analyzed with partially validated LC-MS/MS method. Pharmacokinetic parameters were calculated using the non-compartmental analysis tool of WinNonlin® Enterprise software (Pharsight Corp., USA; version 5.2).
Compound levels from 3 samples per timepoint (for a given dose and route of administration), were used to calculated pharmacokinetic parameters using the non-compartmental analysis tool of WinNonlin® Enterprise software (Pharsight Corp., USA; version 5.2).

[21] = Wistar rats, oral gavage 10 mg/kg
[22] = male, rat, plasma, po, 5.6 mg/kg/day, Wistar rats, oral drinking water 0.25mg/ml (5,6 mg/kg)
[23] = male, rat, plasma, po, 10 mg/kg, Wistar rats, oral drinking water, dose normalized to 10 mg/Kg
[24] = male, rat, plasma, po, 10 mg/kg, Wistar rats, oral gavage 10 mg/kg
[25] = male, rat, plasma, po, 10 mg/kg, Wistar rats, oral gavage 10 mg/kg (second gavage column)
[26] = male, rat, plasma, po, 10 mg/kg, Wistar rats, oral gavage 10 mg/kg (second gavage column, gavage vs drinking water study)
[27] = male, rat, plasma, Wistar rats, intravenous 2 mg/kg

T1 sequence (P30556 whole entry): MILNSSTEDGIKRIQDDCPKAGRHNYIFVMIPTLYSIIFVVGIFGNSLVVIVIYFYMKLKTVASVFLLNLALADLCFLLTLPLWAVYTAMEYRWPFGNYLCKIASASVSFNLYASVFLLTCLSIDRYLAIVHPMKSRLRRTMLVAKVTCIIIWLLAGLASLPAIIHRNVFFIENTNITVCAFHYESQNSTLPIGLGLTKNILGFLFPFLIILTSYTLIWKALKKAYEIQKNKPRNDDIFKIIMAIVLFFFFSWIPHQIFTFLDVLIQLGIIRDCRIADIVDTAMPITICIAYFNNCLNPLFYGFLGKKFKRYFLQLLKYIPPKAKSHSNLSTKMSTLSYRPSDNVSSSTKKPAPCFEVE

Structure (SMILES): Nc1nnc(CN[C@@H]2C[C@H]2c2ccc(OCc3ccccc3)cc2)o1 [ORY-2001, vafidemstat]
- inhibition at 10 µM [1]: -2%
- inhibition at 10 µM [2]: -8%
- inhibition at 10 µM [3]: 33%
- inhibition at 10 µM [4]: 1%
- inhibition at 10 µM [5]: -5%
- inhibition at 10 µM [6]: -15%
- inhibition at 10 µM [7]: 14%
- inhibition at 10 µM [8]: -5%
- inhibition at 10 µM [9]: 7%
- inhibition at 10 µM [10]: -2%
- inhibition at 10 µM [11]: 18%
- inhibition at 10 µM [12]: -3%
- inhibition at 10 µM [13]: 5%
- inhibition at 10 µM [14]: 7%
- inhibition at 10 µM [15]: 31%
- inhibition at 10 µM [16]: 0%
- % inhibition [17]: -2%
- % inhibition [18]: 13%
- % inhibition [19]: 1%
- binding to free FAD [20]: does not bind free FAD
- mode of inhibition of KDM1A (FAD cofactor) ([20]; absorbance spectrum and MALDI-TOF): covalent binding
- Brain Cmax (Rat pharmacokinetics; [21]): 4957 ng/g
- Fpo (Rat pharmacokinetics; [21]): 95%
- time for brain compound levels to return to baseline (Rat pharmacokinetics; brain pharmacokinetics (S2A Table)): less than 1 days
- AUC(0-inf) (Rat pharmacokinetics; male, rat, plasma, iv, 2 mg/kg, Wistar rats, intravenous 2 mg/kg): 3910 ng·h/mL
- Cmax (Rat pharmacokinetics; [22]): 945 ng/mL
- Tmax (Rat pharmacokinetics; [22]): 8.67 h
- AUC(0-t) (Rat pharmacokinetics; male, rat, plasma, po, 5.6 mg/kg/day, Wistar rats, oral drinking water 0.25mg/ml (5,6 mg/kg), ad libitum 24 hr): 12000 ng·h/mL
- AUC(0-inf) (Rat pharmacokinetics; [22]): 12100 ng·h/mL
- Cmax (Rat pharmacokinetics; [23]): 1690 ng/mL
- Tmax (Rat pharmacokinetics; [23]): 8.67 h
- AUC(0-t) (Rat pharmacokinetics; male, rat, plasma, po, 10 mg/kg, Wistar rats, oral drinking water, dose normalized to 10 mg/Kg considering a linear behavior): 21500 ng·h/mL
- AUC(0-inf) (Rat pharmacokinetics; [23]): 21700 ng·h/mL
- Cmax (Rat pharmacokinetics; [24]): 3400 ng/mL
- Tmax (Rat pharmacokinetics; [24]): 0.833 h
- Cmax (Rat pharmacokinetics; [25]): 5970 ng/mL
- Tmax (Rat pharmacokinetics; [25]): 2 h
- AUC(0-inf) (Rat pharmacokinetics; [26]): 35600 ng·h/mL
- AUC(0-t) (Rat pharmacokinetics; [26]): 32900 ng·h/mL
- AUC(0-inf) (Rat pharmacokinetics; [24]): 21000 ng·h/mL
- AUC (Rat pharmacokinetics; male, rat, plasma, po, Wistar rats, p.o. 10 mg/kg, read-out: area-under-the-curve (AUC) (converted)): 21000 ng·h/mL
- clearance (Rat pharmacokinetics; [27]): 8.5 mL/min/kg
- half-life (Rat pharmacokinetics; [27]): 112 min
- Vd (Rat pharmacokinetics; male, rat, plasma, Wistar rats, intravenous 2 mg/kg, read-out: Vss): 1.2 L/kg
- half-life (Rat pharmacokinetics; male, rat, plasma, Wistar rats, oral gavage 10 mg/kg): 197 min

Reference: publication PMC7259601 (PLoS ONE, 2020)
